25 compounds from ChEMBL document CHEMBL4177716, “Design, synthesis and pharmacological evaluation of some novel indanone derivatives as acetylcholinesterase inhibitors for the management of cognitive dysfunction” (Bioorg Med Chem, 2018) can be followed below.

Experiment [1] has as its target T1, Acetylcholinesterase (Mus musculus) (UniProt P21836).
T1 sequence (whole entry): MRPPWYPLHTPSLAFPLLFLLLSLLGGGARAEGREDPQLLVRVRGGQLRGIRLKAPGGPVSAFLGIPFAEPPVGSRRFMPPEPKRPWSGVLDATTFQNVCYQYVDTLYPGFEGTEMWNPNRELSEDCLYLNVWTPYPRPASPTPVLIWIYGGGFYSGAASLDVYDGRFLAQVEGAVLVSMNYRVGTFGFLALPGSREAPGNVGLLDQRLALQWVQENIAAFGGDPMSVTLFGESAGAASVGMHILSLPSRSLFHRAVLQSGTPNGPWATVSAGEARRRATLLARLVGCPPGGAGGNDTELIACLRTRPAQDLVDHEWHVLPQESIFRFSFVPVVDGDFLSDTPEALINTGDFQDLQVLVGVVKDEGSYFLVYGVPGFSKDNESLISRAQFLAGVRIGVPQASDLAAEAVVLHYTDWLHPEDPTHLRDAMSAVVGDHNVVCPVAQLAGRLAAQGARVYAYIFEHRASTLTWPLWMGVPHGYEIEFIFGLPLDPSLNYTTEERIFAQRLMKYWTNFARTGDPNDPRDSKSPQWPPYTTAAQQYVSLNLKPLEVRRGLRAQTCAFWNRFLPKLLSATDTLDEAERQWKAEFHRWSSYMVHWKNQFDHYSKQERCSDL
Put plainly: Inhibition of AchE in albino LACA mouse brain at 10^-3 M using acetylthiocholine iodide as substrate incubated for 10 mins measured for 2 mins by Ellman's method relative to control. (Ellman's reagent forms a yellow product with free thiols.)

Experiment [2] relates to Mus musculus. In words: Cognition enhancing effect in albino mouse assessed as reversal of scopolamine-induced memory deficit by measuring basal latency time at 0.5 mg/kg, ip treated 5 mins post scopolamine challenge by step down passive avoidance test (reference value: 63.93 +/- 2.6 sec). In kind it is functional.
Experiment [3] concerns Mus musculus. In words: Cognition enhancing effect in albino mouse assessed as reversal of scopolamine-induced memory deficit by measuring reduction in number of mistake at 0.5 mg/kg, ip treated 5 mins post scopolamine challenge by step down passive avoidance test. Type of experiment: functional, organism-based.
Experiment [4] deals with Mus musculus. Put plainly: Cognition enhancing effect in albino mouse assessed as reversal of scopolamine-induced memory deficit by measuring latency time at 0.5 mg/kg, ip treated 5 mins post scopolamine challenge by step down passive avoidance test (reference value: 68.16 +/- 0.4 sec). Type of experiment: functional.
Experiment [5] deals with T1, Acetylcholinesterase (Mus musculus). Particulars: Brain, at 1 µM.
Experiment [6] shares this target. Particulars: Brain, at 5 µM.
The target is the same in experiment [7]. Particulars: Brain, at 10 µM.
For experiment [8] the target is unchanged. Particulars: Brain, at 50 µM.
For experiment [9] the target is unchanged. Particulars: Brain, at 25 µM.
Experiment [10] concerns the target T2, Acetylcholinesterase (Mus musculus, UniProt P21836).
T2 sequence (P21836 whole entry): T1 sequence (whole entry)
On the set-up: species or system LACA.

Activity calls are given as the source filed them. The calls are words filed in the database; no cut-off is given here.

Usually inhibition stands for the drop in the measured response relative to a control, in per cent. Read a high inhibition as a strong effect. As usually defined, the IC50 is the midpoint of a concentration-inhibition curve. Low values mean greater potency, high ones weaker potency.

In the case of `COc1cc2c(cc1OC)C(=O)C(CC1CCN(CC(=O)Cc3nc4ccccc4s3)CC1)C2` (stereo not given), in experiment [1], the inhibition is 4.62%.

Turning to `COc1ccc2nc(CC(=O)CN3CCC(CC4Cc5cc(OC)c(OC)cc5C4=O)CC3)sc2c1` (stereo not given), the inhibition in experiment [1] was found to be 3.72%.

`COc1cc2c(cc1OC)C(=O)C(CC1CCN(Cc3ccccc3)CC1)C2` (stereo not given) [DONEPEZIL]: the Time in [2] was 17.67 s; in [4], 11.52 s. The outcome in [3] was Active.

For the compound `O=C(Oc1cccc(/C=C2\Cc3ccccc3C2=O)c1)c1ccc(F)cc1`, the inhibition in experiment [5] is 33.9%; in [6], 35.5%; in experiment [7] it was 38.7%; in experiment [8], 54.8%; in experiment [9], 51.6%. Further, the Time in experiment [2] was 22.06 s; in [4], 9.9 s. The outcome in [3] was Active. For the same compound, half-maximal inhibition in experiment [10] (IC50) required 40.6 µM.

On to `COc1cc2c(cc1OC)C(=O)C(CC1CCN(CC(=O)Cc3nc4ccc(Cl)cc4s3)CC1)C2` (stereo not given), for which the inhibition in experiment [1] turned out to be 2.13%.

In turn, `COc1ccc(NC(=O)CN2CCC(CC3Cc4cc(OC)c(OC)cc4C3=O)CC2)cc1OC` (stereo not given) showed an inhibition in [1] of 7.33%.

For `O=C(Oc1cccc(/C=C2\Cc3ccccc3C2=O)c1)c1cc(Cl)cc(Cl)c1`, the inhibition in experiment [5] came to 37%; in experiment [6] it was 41.9%; in experiment [7], 33.9%; in [8], 51.6%; in experiment [9], 43.5%. Further, the Time came out at 19.86 s in [2] and 12.65 s in experiment [4]. For the same compound, the outcome in experiment [3] was Active. Besides, the IC50 in [10] was determined as 43.3 µM.

`COc1cc2c(cc1OC)C(=O)C(CC1CCN(CC(=O)Nc3ccc(Cl)cc3)CC1)C2` (stereo not given) returned an inhibition in experiment [1] of 2.74%.

Turning to `O=C(Oc1cccc(/C=C2\Cc3ccccc3C2=O)c1)c1cccc(CCl)c1`, the inhibition turned out to be 75.9% in experiment [5]; 70.6% in experiment [6]; 56.3% in experiment [7]; 59.3% in experiment [8]; 72.9% in experiment [9]. In addition, the results for the Time in experiment [2] and in [4] were 20.86 s and 11.65 s, respectively. For the same compound, the result in [3] was Active. Further, the 50% inhibitory concentration (IC50) in experiment [10] amounted to 27.1 µM.

In experiment [1], `COc1cc2c(cc1OC)C(=O)C(CC1CCN(CC(=O)Cc3nc4cc(OC)c(OC)cc4s3)CC1)C2` (stereo not given) returned an inhibition of 3.2%.

Regarding `COc1cc2c(cc1OC)C(=O)C(CC1CCN(CC(=O)Nc3ccc(F)cc3)CC1)C2` (stereo not given), the inhibition in experiment [1] was found to be 6.19%.

Consider `COc1cc2c(cc1OC)C(=O)C(CC1CCN(CC(=O)Nc3ccc(C)cc3)CC1)C2` (stereo not given), for which the inhibition in experiment [1] came out at 13.9%.

In the case of `O=C(Oc1cccc(/C=C2\Cc3ccccc3C2=O)c1)c1ccc([N+](=O)[O-])cc1`, the inhibition is 72.1% in [5]; 68.3% in [6]; 65.3% in [7]; 51% in [8]; 60.8% in experiment [9]. The Time in experiment [2] was found to be 14.23 s; in experiment [4], 7.98 s. Moreover, in experiment [3], the outcome was Active. The IC50 in experiment [10] was 48.8 µM.

In the case of `O=C(Oc1cccc(/C=C2\Cc3ccccc3C2=O)c1)c1ccccc1F`, the inhibition worked out at 80.4% in [5]; 48.8% in [6]; 40.5% in [7]; 32.9% in [8]; 35.2% in [9]. Further, the Time is 13.72 s in experiment [2] and 5.9 s in [4]. The outcome in experiment [3] was Active. In experiment [10], this compound gave an IC50 of 14.1 µM.

With `O=C(Oc1cccc(/C=C2\Cc3ccccc3C2=O)c1)c1cc(C(F)(F)F)cc(C(F)(F)F)c1`, the inhibition in [5] turned out to be 38.7%; in experiment [6] it was 46.8%; in [7], 53.2%; in experiment [8], 67.7%; in [9], 59.7%. The Time in experiment [2] was 12.63 s; in experiment [4] it was 6.98 s. Further, the result in [3] was Active. Moreover, the IC50 in experiment [10] stood at 12 µM.

As for `COc1ccc(C(=O)Oc2cccc(/C=C3\Cc4ccccc4C3=O)c2)cc1`, the inhibition came out at 30.6% in experiment [5]; 32.2% in experiment [6]; 33.9% in experiment [7]; 48.4% in experiment [8]; 41.9% in experiment [9]. Moreover, the values for the Time in experiment [2] and in experiment [4] were 14.82 s and 7.11 s, respectively. Also, the result in [3] was Active. This compound also returned an IC50 in experiment [10] of 38.9 µM.

On to `O=C(Oc1cccc(/C=C2\Cc3ccccc3C2=O)c1)c1cccc(OC(F)(F)F)c1`, for which the inhibition in experiment [5] was 73.6%; in [6], 72.1%; in experiment [7], 64.6%; in experiment [8], 78.2%; in experiment [9], 91.7%. Also, the Time in [2] stood at 27.67 s; in experiment [4], 12.01 s. Besides, the outcome in experiment [3] was Active. The same compound registered an IC50 in experiment [10] of 12.3 µM.

Regarding `O=C(Oc1cccc(/C=C2\Cc3ccccc3C2=O)c1)c1ccccc1`, the inhibition came out at 30.6% in experiment [5]; 27.4% in [6]; 37.1% in experiment [7]; 67.7% in [8]; 48.4% in experiment [9]. For the same compound, the Time in experiment [2] is listed as 16.01 s; in [4], 10.01 s. Also, the outcome in experiment [3] was Active. The compound also showed an IC50 in experiment [10] of 34.3 µM.

Regarding `COc1cc2c(cc1OC)C(=O)C(CC1CCN(CC(=O)Cc3nc4ccc([N+](=O)[O-])cc4s3)CC1)C2` (stereo not given), the inhibition in experiment [1] was 5.9%.

With `COc1cc2c(cc1OC)C(=O)C(CC1CCN(CC(=O)Nc3ccc([N+](=O)[O-])cc3)CC1)C2` (stereo not given), the inhibition in [1] is 8.67%.

Compound `COc1cc2c(cc1OC)C(=O)C(CC1CCN(CC(=O)Cc3nc4ccc(F)cc4s3)CC1)C2` (stereo not given) came in with an inhibition in [1] of 1.24%.

As to `COc1ccc(NC(=O)CN2CCC(CC3Cc4cc(OC)c(OC)cc4C3=O)CC2)cc1` (stereo not given), in [1], the inhibition stood at 12.8%.

`O=C(Oc1cccc(/C=C2\Cc3ccccc3C2=O)c1)c1ccc(CCl)cc1`: the inhibition in experiment [5] stood at 67.6%; in experiment [6], 66.1%; in experiment [7] it was 65.3%; in experiment [8], 53.3%; in [9], 56.3%. In addition, the values for the Time in [2] and in experiment [4] were 14.82 s and 8.11 s, respectively. Besides, the outcome in experiment [3] was Active. The half-inhibitory concentration (IC50) in experiment [10] came out at 79.7 µM.

Compound `COc1cc2c(cc1OC)C(=O)C(CC1CCN(CC(=O)Cc3nc4ccc(C)cc4s3)CC1)C2` (stereo not given) yielded an inhibition in [1] of 5.82%.

On to `COc1cc(C(=O)Oc2cccc(/C=C3\Cc4ccccc4C3=O)c2)cc(OC)c1OC`, for which the inhibition in experiment [5] came to 69.1%; in experiment [6] it was 32.2%; in experiment [7], 72.1%; in experiment [8], 32.9%; in [9] it was 78.9%. Besides, the Time in [2] came out at 13.81 s; in experiment [4], 6.08 s. Also, the outcome in experiment [3] was Active. Besides, half-maximal inhibition in experiment [10] (IC50) required 14.1 µM.
